Molecules are shown by their SMILES.

As usually defined, the melting point is the temperature of the solid-liquid transition. `CCOC(=O)CN1CC(OC)=CC1=O` displayed a melting point of 54 to 56 °C.

For the compound `CCCCCCC(=N)NC(=S)Nc1cc(C(F)(F)F)ccc1Cl`, the melting point lay in the range of 88 to 90 °C.

Take `COc1cc(C(C)O)c(O)cc1OCCCN1CCC(c2noc3cc(F)ccc23)CC1` (stereo unspecified): the melting point fell in the range of 156 to 158 °C.

For `C=C(C)Cn1c(=O)c2ccccc2n1C(=O)OCC`, the melting point lay in the range of 48 to 50 °C.

In the case of `Oc1ccc(-c2csc(S)n2)cc1O`, the melting point is 236 °C.

`CCCCn1cccc1C(=O)N(C)C` returned a melting point of 132 °C.

As to `CC1(c2ccc(C(O)C(C)(C)C)cc2)OCCO1` (stereo unspecified), the melting point lay within 75 to 80 °C.

`CC(C)n1nc(-c2sc(C(=O)NCc3ccccn3)nc2-c2cccc(Cl)c2)ccc1=O` yielded a melting point of 168 to 170 °C.

Compound `Cc1c(C#N)sc2nc(-c3ccccc3)nc(N3CCN(C)CC3)c12` had a melting point of 223 to 225 °C.

The compound `CC(C)c1cc(O)cc(C(C)C)c1NC(=O)CN1CCN(CCCSc2nc3ccccc3o2)CC1` registered a melting point of 201 to 203 °C.

As for `Cc1ccc2c(Cl)cc(S(=O)(=O)NCCc3ccc(N)cc3)c(O)c2n1`, the melting point lay within 249 to 253 °C.

`CN1Cc2c(-c3nc(CN4C(=O)c5ccccc5C4=O)no3)ncn2-c2cccc(Cl)c2C1=O` had a melting point of 237 to 239 °C.

`CC(C)c1cccc(C(C)C)c1NC(=O)Nc1ccccc1CCc1cc(C(C)(C)C)c(O)c(C(C)(C)C)c1` came in with a melting point of 209 to 210 °C.

With `Cn1c(-c2ccc(Br)cc2)cc2ccccc21`, the melting point lay within 114 to 115 °C.

The compound `CC(=O)OCC1OC(n2cc(Cc3ccc(Br)cc3)c3c(Cl)cccc32)C(OC(C)=O)C(OC(C)=O)C1OC(C)=O` (stereo unspecified) yielded a melting point of 223 to 225 °C.

Compound `O=C(Nc1ccc(Br)cn1)Nc1cccc2c1C1CCCCN1C2=O` (stereo unspecified) registered a melting point of 225 °C.

Compound `O=C1NC(=O)C(Cc2cccs2)N1` (stereo unspecified) had a melting point of 188 to 190 °C.

With `O=C(O)CCCc1cc2nc(Cl)ccc2n1S(=O)(=O)c1ccc2snnc2c1`, the melting point is 227 °C.

With `Cc1c(-c2ccccc2F)[nH]c(N)c1C#N`, the melting point lay in the range of 117 to 118 °C.

Regarding `CCOC(=O)C(=O)Nc1ncccc1C#N`, the melting point is 95 to 97 °C.

Consider `Nc1c(Cl)cc2c3c(cccc13)C(=O)N(O)C2=O`, for which the melting point was 354 to 359 °C.

As to `O/N=C(\Sc1ccccc1)C(F)(F)F`, the melting point is 64 to 66 °C.

Consider `COC(=O)c1ccc(C2=NOC(c3cc(Cl)cc(C(F)(F)F)c3)(C(F)(F)F)C2)c2ccccc12` (stereo unspecified), for which the melting point amounted to 112 °C.

Compound `COC(=O)c1cc(N)c(F)c(-c2ccc(Cl)c(OC)c2F)n1` registered a melting point of 204 to 206 °C.

As for `Nc1cccc(-c2ccc(CCN3CCN(CCc4ccccc4)CC3)cc2)n1`, the melting point fell in the range of 111 to 113 °C.

The compound `COc1ccc(CNC(=O)[C@@H](NC(=O)[C@H](NCc2ccc(N(C)C)cc2)[C@H](O)[C@H](Cc2ccccc2)NC(=O)OC(C)(C)C)C(C)C)c(O)c1` registered a melting point of 89 to 91 °C.

Take `N#CCCCCCCCCCCCCC#N`: the melting point was less than 40 °C.

Take `NC(=O)c1cc2[nH]c3ccccc3c(=O)n2n1`: the melting point is 315 to 325 °C.

Compound `COc1ccnc(CCc2nc3cc(-c4ccc(S(=O)(=O)N(CCO)CCO)cc4)cnc3[nH]2)c1` registered a melting point of 127 to 128 °C.

In turn, `O=C(NNc1ccc(Br)cc1)c1c(F)cccc1F` displayed a melting point of 172 °C.

Regarding `CC(C)N1C(=O)C2Cc3nc[nH]c3CN2C1=O` (stereo unspecified), the melting point was 149 to 157 °C.

`CCOc1nn(C(=S)Oc2ccccc2)c(=O)n1C` showed a melting point of 123 °C.

With `O=C(NC(=S)Nc1ccccc1-c1ccccc1F)c1ccccc1`, the melting point lay within 110 to 111 °C.

`CCCOC(=O)c1cc(C(=O)Nc2ccccc2O)cc(Br)c1O` came in with a melting point of 198 to 200 °C.

The compound `CC(O)(C(=O)O)c1ccc2c(c1)[nH]c1ccc(Cl)cc12` (stereo unspecified) registered a melting point of 218 to 220 °C.

Turning to `CNC1=NS(=O)N=C1NCCSCc1ccc(CN(C)C)s1` (stereo unspecified), the melting point lay in the range of 98.5 to 102 °C.

The record behind these values is a melting point compilation (Tetko et al.; mined from patent text by program, amines drawn as free bases though some values may be those of a salt).
